Data from US10590140B2, “Tetrahydropyrimidodiazepine and dihydropyridodiazepine compounds for treating pain and pain related conditions” (ESTEVE PHARMACEUTICALS, S.A., priority 2016, dated 2020).
Where two headings read alike, the source gives them in different places.

Key:
[1] = molecular target: human α2δ-1 subunit of Cav2.2 calcium channel (Homo sapiens (Human), UniProt P54289); experiment: Binding assay to human α2δ-1 subunit of Cav2.2 calcium channel ([3H]-Gabapentin); conditions: read-out: Ki (nM) α2δ-1
Chain of human α2δ-1 subunit of Cav2.2 calcium channel (P54289 25-1103): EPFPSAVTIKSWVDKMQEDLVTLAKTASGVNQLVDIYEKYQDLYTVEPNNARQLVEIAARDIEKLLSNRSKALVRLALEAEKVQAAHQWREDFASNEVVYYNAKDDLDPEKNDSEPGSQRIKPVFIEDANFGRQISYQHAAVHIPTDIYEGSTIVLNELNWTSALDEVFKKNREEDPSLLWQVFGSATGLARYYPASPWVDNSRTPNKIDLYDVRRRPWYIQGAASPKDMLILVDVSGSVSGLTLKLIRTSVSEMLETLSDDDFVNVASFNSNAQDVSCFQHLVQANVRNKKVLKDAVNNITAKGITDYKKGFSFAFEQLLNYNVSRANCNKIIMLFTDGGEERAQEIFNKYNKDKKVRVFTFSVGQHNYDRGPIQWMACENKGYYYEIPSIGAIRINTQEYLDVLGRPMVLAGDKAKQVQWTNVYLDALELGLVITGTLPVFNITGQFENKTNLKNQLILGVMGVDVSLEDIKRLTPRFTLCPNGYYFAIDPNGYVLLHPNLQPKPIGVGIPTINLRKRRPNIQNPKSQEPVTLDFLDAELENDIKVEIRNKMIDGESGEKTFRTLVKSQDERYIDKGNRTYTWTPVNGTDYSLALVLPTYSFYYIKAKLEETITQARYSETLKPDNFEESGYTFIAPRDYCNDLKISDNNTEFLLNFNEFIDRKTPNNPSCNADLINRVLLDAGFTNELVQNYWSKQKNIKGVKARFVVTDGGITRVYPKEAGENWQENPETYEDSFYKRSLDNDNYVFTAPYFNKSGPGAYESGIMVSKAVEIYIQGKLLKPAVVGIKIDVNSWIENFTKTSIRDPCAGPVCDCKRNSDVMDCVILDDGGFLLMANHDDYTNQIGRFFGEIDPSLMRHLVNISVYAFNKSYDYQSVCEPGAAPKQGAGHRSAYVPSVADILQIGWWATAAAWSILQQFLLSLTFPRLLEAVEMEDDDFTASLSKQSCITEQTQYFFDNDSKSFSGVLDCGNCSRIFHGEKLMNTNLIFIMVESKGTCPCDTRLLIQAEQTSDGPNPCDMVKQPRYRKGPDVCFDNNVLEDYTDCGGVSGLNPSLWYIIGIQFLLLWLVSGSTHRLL
Outline: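 Radioactivity on dried GF/C filters quantified by scintillation after filtration and three cold Tris-HCl (pH 7.4) washes. Incubation ran 60 min at 27° C with [3H]-gabapentin; 10 μM pregabalin gave nonspecific binding.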

[2] = molecular target: human norepinephrine transporter (NET) (Homo sapiens (Human), UniProt P23975); experiment: Binding assay to human norepinephrine transporter (NET) ([3H]-Nisoxetin); conditions: Table 2, dual compounds; [3H]-Nisoxetin binding
Chain of human norepinephrine transporter (NET) (P23975 whole entry): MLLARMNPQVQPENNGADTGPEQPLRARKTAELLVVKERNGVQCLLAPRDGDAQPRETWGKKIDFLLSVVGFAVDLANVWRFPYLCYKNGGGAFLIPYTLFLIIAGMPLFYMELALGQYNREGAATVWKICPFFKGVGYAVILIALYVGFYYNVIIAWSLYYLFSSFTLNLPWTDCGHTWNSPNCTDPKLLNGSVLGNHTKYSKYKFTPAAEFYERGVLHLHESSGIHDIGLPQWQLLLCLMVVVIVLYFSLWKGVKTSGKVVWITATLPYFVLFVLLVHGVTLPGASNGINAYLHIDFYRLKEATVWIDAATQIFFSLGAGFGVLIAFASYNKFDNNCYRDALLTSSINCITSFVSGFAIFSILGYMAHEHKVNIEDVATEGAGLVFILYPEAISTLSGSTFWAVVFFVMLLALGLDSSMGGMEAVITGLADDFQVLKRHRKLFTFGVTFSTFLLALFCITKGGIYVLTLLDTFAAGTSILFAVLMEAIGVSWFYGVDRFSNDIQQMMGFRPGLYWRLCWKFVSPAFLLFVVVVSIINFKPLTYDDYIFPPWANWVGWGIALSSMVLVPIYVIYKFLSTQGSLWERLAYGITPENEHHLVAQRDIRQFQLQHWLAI
Method: Binding Assay to Human Norepinephrine Transporter (NET).
Human norepinephrine transporter (NET) enriched membranes (5 μg) were incubated with 5 nM of radiolabeled [3H]-Nisoxetin in assay buffer containing 50 mM Tris-HCl, 120 mM NaCl, 5 mM KCl, pH 7.4.
NSB (non specific binding) was measured by adding 1 μM. After 60 min incubation at 4° C., binding reaction was terminated by filtering through Multiscreen GF/C (Millipore) presoaked in 0.5% polyethyleneimine in Vacuum Manifold Station, followed by 3 washes with ice-cold filtration buffer containing 50 mM Tris-HCl, 0.9% NaCl, pH 7.4.
Filter plates were dried at 60° C. for 1 hour and 30 μl of scintillation cocktail were added to each well before radioactivity reading.

[3] = Table 2, dual compounds, [3H]-Gabapentin binding
[4] = binding to α2δ-1, [3H]-Gabapentin

## CNCCC(OCc1cccc(N2CCN(C)c3nc(N(C)Cc4ccccn4)ncc3C2=O)c1)c1ccccc1 (stereo not drawn) [Example 336, 9-methyl-2-(methyl(pyridin-2-ylmethyl)amino)-6-(3-((3-(methylamino)-1-phenylpropoxy)methyl)phenyl)-6,7,8,9-tetrahydro-5H-pyrimido[4,5-e][1,4]diazepin-5-one]
[1]; [3]
  Ki: 500 to 3000 nM
[1]; [4]
  Ki: 500 to 3000 nM
[2]
  Ki: 100 to 500 nM

## CNCCC(OCc1ccc(CN2CCN(C)c3nc(C)ncc3C2=O)cc1)c1ccccc1 (stereo not drawn) [Example 422, 2,9-dimethyl-6-(4-((3-(methylamino)-1-phenylpropoxy)methyl)benzyl)-6,7,8,9-tetrahydro-5H-pyrimido[4,5-e][1,4]diazepin-5-one]
[1]; [3]
  Ki: > 3000 nM
[1]; [4]
  Ki: > 3000 nM
[2]
  Ki: 500 to 1000 nM

## CNCC[C@@H](OCc1cccc(N2CCN(C)c3nc(C)ncc3C2=O)c1)c1ccccc1 [Example 206, (R)-2,9-dimethyl-6-(3-((3-(methylamino)-1-phenylpropoxy)methyl)phenyl)-6,7,8,9-tetrahydro-5H-pyrimido[4,5-e][1,4]diazepin-5-one]
[1]; [3]
  Ki: 100 to 500 nM
[1]; [4]
  Ki: 500 to 3000 nM
[2]
  Ki: 100 to 500 nM

## CNCC(OCc1ccc(N2CCN(C)c3nc(SC)ncc3C2=O)cc1)c1ccccc1 (stereo not drawn) [Example 321, 9-methyl-6-(4-((2-(methylamino)-1-phenylethoxy)methyl)phenyl)-2-(methylthio)-6,7,8,9-tetrahydro-5H-pyrimido[4,5-e][1,4]diazepin-5-one]
[1]; [3]
  Ki: > 3000 nM
[1]; [4]
  Ki: > 3000 nM
[2]
  Ki: < 100 nM

## CCNc1ncc2c(n1)N(C)CCN(c1cccc(-n3cc(CN(C)Cc4ccc(F)cc4)nn3)c1)C2=O [Example 287, 2-(ethylamino)-6-(3-(4-(((4-fluorobenzyl)(methyl)amino)methyl)-1H-1,2,3-triazol-1-yl)phenyl)-9-methyl-6,7,8,9-tetrahydro-5H-pyrimido[4,5-e][1,4]diazepin-5-one]
[1]; [3]
  Ki: 500 to 3000 nM
[1]; [4]
  Ki: 500 to 3000 nM
[2]
  Ki: < 100 nM

## CNCC[C@@H](OCc1cccc(N2CCN(C)c3nc(N(C)Cc4cccnc4)ncc3C2=O)c1)c1ccccc1 [Example 342, (R)-9-methyl-2-(methyl(pyridin-3-ylmethyl)amino)-6-(3-((3-(methylamino)-1-phenylpropoxy)methyl)phenyl)-6,7,8,9-tetrahydro-5H-pyrimido[4,5-e][1,4]diazepin-5-one]
[1]; [3]
  Ki: 100 to 500 nM
[1]; [4]
  Ki: 100 to 500 nM
[2]
  Ki: 100 to 500 nM

## CNCC[C@@H](OCc1cccc(N2CCN(C)c3nc(N(C)Cc4ccccn4)ncc3C2=O)c1)c1ccccc1 [Example 341, (R)-9-methyl-2-(methyl(pyridin-2-ylmethyl)amino)-6-(3-((3-(methylamino)-1-phenylpropoxy)methyl)phenyl)-6,7,8,9-tetrahydro-5H-pyrimido[4,5-e][1,4]diazepin-5-one]
[1]; [3]
  Ki: 100 to 500 nM
[1]; [4]
  Ki: 100 to 500 nM
[2]
  Ki: 100 to 500 nM

## CCNc1ncc2c(n1)N(C)CCN(c1ccc(COC(CNC)c3ccccc3)cc1)C2=O (stereo not drawn) [Example 340, 2-(ethylamino)-9-methyl-6-(4-((2-(methylamino)-1-phenylethoxy)methyl)phenyl)-6,7,8,9-tetrahydro-5H-pyrimido[4,5-e][1,4]diazepin-5-one]
[1]; [3]
  Ki: > 3000 nM
[1]; [4]
  Ki: > 3000 nM
[2]
  Ki: < 100 nM

## CCc1ncc2c(n1)N(C)CCN(c1cccc(COC(CCNC)c3ccccc3)c1)C2=O (stereo not drawn) [Example 354, 2-ethyl-9-methyl-6-(3-((3-(methylamino)-1-phenylpropoxy)methyl)phenyl)-6,7,8,9-tetrahydro-5H-pyrimido[4,5-e][1,4]diazepin-5-one]
[1]; [3]
  Ki: 500 to 3000 nM
[1]; [4]
  Ki: 500 to 3000 nM
[2]
  Ki: 100 to 500 nM

## CCNc1ncc2c(n1)N(C)CCN(c1cccc(COC(CNC)c3ccccc3)c1)C2=O (stereo not drawn) [Example 225, 2-(Ethylamino)-9-methyl-6-(3-((2-(methylamino)-1-phenylethoxy)methyl)phenyl)-6,7,8,9-tetrahydro-5H-pyrimido[4,5-e][1,4]diazepin-5-one]
[1]; [3]
  Ki: 500 to 3000 nM
[1]; [4]
  Ki: 500 to 3000 nM
[2]
  Ki: > 1000 nM

## CCNc1ncc2c(n1)N(C)CCN(c1cccc(OC(CNC)c3ccccc3)c1)C2=O (stereo not drawn) [Example 154, 2-(ethylamino)-9-methyl-6-(3-(2-(methylamino)-1-phenylethoxy)phenyl)-6,7,8,9-tetrahydro-5H-pyrimido[4,5-e][1,4]diazepin-5-one]
[1]; [3]
  Ki: 500 to 3000 nM
[1]; [4]
  Ki: 500 to 3000 nM
[2]
  Ki: 100 to 500 nM

## CCNc1ncc2c(n1)N(C)CCN(c1cccc(-n3cc(CN(C)CCc4ccccc4)nn3)c1)C2=O [Example 244, 2-(ethylamino)-9-methyl-6-(3-(4-((methyl(phenethyl)amino)methyl)-1H-1,2,3-triazol-1-yl)phenyl)-6,7,8,9-tetrahydro-5H-pyrimido[4,5-e][1,4]diazepin-5-one]
[1]; [3]
  Ki: 500 to 3000 nM
[1]; [4]
  Ki: 500 to 3000 nM
[2]
  Ki: < 100 nM

## CNCCC(OCc1cccc(N2CCN(C)c3nc(C(F)(F)F)ncc3C2=O)c1)c1cccs1 (stereo not drawn) [Example 330, 9-methyl-6-(3-((3-(methylamino)-1-(thiophen-2-yl)propoxy)methyl)phenyl)-2-(trifluoromethyl)-6,7,8,9-tetrahydro-5H-pyrimido[4,5-e][1,4]diazepin-5-one]
[1]; [3]
  Ki: 500 to 3000 nM
[1]; [4]
  Ki: 500 to 3000 nM
[2]
  Ki: 100 to 500 nM

## CCNc1ncc2c(n1)N(C)CCN(c1cccc(C(C)(C)CNC)c1)C2=O [Example 173, 2-(ethylamino)-9-methyl-6-(3-(2-methyl-1-(methylamino)propan-2-yl)phenyl)-6,7,8,9-tetrahydro-5H-pyrimido[4,5-e][1,4]diazepin-5-one]
[1]; [3]
  Ki: 500 to 3000 nM
[1]; [4]
  Ki: 500 to 3000 nM
[2]
  Ki: > 1000 nM

## CNCC[C@@H](Oc1cccc(N2CCN(C)c3nc(SC)ncc3C2=O)c1)c1ccccc1 [Example 152, (R)-9-methyl-6-(3-(3-(methylamino)-1-phenylpropoxy)phenyl)-2-(methylthio)-6,7,8,9-tetrahydro-5H-pyrimido[4,5-e][1,4]diazepin-5-one]
[1]; [3]
  Ki: 500 to 3000 nM
[1]; [4]
  Ki: 500 to 3000 nM
[2]
  Ki: 100 to 500 nM

## CCNc1ncc2c(n1)N(C)CCN(c1cccc(OC(CCNC)c3ccccn3)c1)C2=O (stereo not drawn) [Example 193, 2-(ethylamino)-9-methyl-6-(3-(3-(methylamino)-1-(pyridin-2-yl)propoxy)phenyl)-6,7,8,9-tetrahydro-5H-pyrimido[4,5-e][1,4]diazepin-5-one]
[1]; [3]
  Ki: 500 to 3000 nM
[1]; [4]
  Ki: 500 to 3000 nM
[2]
  Ki: > 1000 nM

## CNCC[C@H](OCc1cccc(N2CCN(C)c3nc(SC)ncc3C2=O)c1)c1cccs1 [Example 210, (S)-9-methyl-6-(3-((3-(methylamino)-1-(thiophen-2-yl)propoxy)methyl)phenyl)-2-(methylthio)-6,7,8,9-tetrahydro-5H-pyrimido[4,5-e][1,4]diazepin-5-one]
[1]; [3]
  Ki: > 3000 nM
[1]; [4]
  Ki: > 3000 nM
[2]
  Ki: 100 to 500 nM

## CNCC[C@@H](Oc1ccc(CN2CCN(C)c3ncncc3C2=O)cc1)c1ccccc1 [Example 434, (R)-9-methyl-6-(4-(3-(methylamino)-1-phenylpropoxy)benzyl)-6,7,8,9-tetrahydro-5H-pyrimido[4,5-e][1,4]diazepin-5-one]
[1]; [3]
  Ki: > 3000 nM
[1]; [4]
  Ki: > 3000 nM
[2]
  Ki: 100 to 500 nM

## CNCC(OCc1ccc(N2CCN(C)c3nc(C)ncc3C2=O)cc1)c1ccccc1 (stereo not drawn) [Example 355, 2,9-dimethyl-6-(4-((2-(methylamino)-1-phenylethoxy)methyl)phenyl)-6,7,8,9-tetrahydro-5H-pyrimido[4,5-e][1,4]diazepin-5-one]
[1]; [3]
  Ki: > 3000 nM
[1]; [4]
  Ki: > 3000 nM
[2]
  Ki: < 100 nM

## CCNc1ncc2c(n1)N(C)CCN(c1cccc(-c3nnc(CN4CCC(c5cccc(O)c5)(N(C)C)CC4)o3)c1)C2=O [Example 442, 6-(3-(5-((4-(dimethylamino)-4-(3-hydroxyphenyl)piperidin-1-yl)methyl)-1,3,4-oxadiazol-2-yl)phenyl)-2-(ethylamino)-9-methyl-6,7,8,9-tetrahydro-5H-pyrimido[4,5-e][1,4]diazepin-5-one]
[1]; [3]
  Ki: < 100 nM
[1]; [4]
  Ki: < 100 nM
[2]
  Ki: < 100 nM

## CNCC[C@H](Oc1cccc(N2CCN(C)c3cc(N)ncc3C2=O)c1)c1cccs1 [Example 304, (S)-8-amino-1-methyl-4-(3-(3-(methylamino)-1-(thiophen-2-yl)propoxy)phenyl)-1,2,3,4-tetrahydro-5H-pyrido[4,3-e][1,4]diazepin-5-one]
[1]; [3]
  Ki: 100 to 500 nM
[1]; [4]
  Ki: 100 to 500 nM
[2]
  Ki: 100 to 500 nM

## CCNc1ncc2c(n1)N(C)CCN(c1cccc(-n3cc(CN4CCCCC4)nn3)c1)C2=O [Example 281, 2-(ethylamino)-9-methyl-6-(3-(4-(piperidin-1-ylmethyl)-1H-1,2,3-triazol-1-yl)phenyl)-6,7,8,9-tetrahydro-5H-pyrimido[4,5-e][1,4]diazepin-5-one]
[1]; [3]
  Ki: 100 to 500 nM
[1]; [4]
  Ki: 100 to 500 nM
[2]
  Ki: 100 to 500 nM

## CCNc1ncc2c(n1)N(C)CCN(c1cccc(OCCN(C)CCc3ccccc3)c1)C2=O [Example 265, 2-(ethylamino)-9-methyl-6-(3-(2-(methyl(phenethyl)amino)ethoxy)phenyl)-6,7,8,9-tetrahydro-5H-pyrimido[4,5-e][1,4]diazepin-5-one]
[1]; [3]
  Ki: 100 to 500 nM
[1]; [4]
  Ki: 100 to 500 nM
[2]
  Ki: 100 to 500 nM

## CCNc1ncc2c(n1)N(C)CCN(Cc1ccc(OC(CNC)c3ccccc3)cc1)C2=O (stereo not drawn) [Example 201, 2-(ethylamino)-9-methyl-6-(4-(2-(methylamino)-1-phenylethoxy)benzyl)-6,7,8,9-tetrahydro-5H-pyrimido[4,5-e][1,4]diazepin-5-one]
[1]; [3]
  Ki: > 3000 nM
[1]; [4]
  Ki: > 3000 nM
[2]
  Ki: < 100 nM
